# US5885834A, “Antisense oligodeoxynucleotide against phosphodiesterase” (priority 1997, dated 1999)
# Like-named read-outs stand apart in the source and are kept apart here.
# Key:
# Format in all cases: cell-based, human
# [1] = test system: PDE4 mRNA in HPBL; experiment: RT-PCR amplification of transcripts in HPBL
# Experimental: (§1) HPBL were purified from 30-60 ml of blood obtained from normal donors by defribrination with glass beads to remove platelets, incubated with tetracarbonyl iron to minimize monocyte contamination and centrifuged on Ficoll-Hypaque density gradients to achieve cell separation. […] For this stimulation, cells were placed in 25 cm^2 flasks in a total volume of 10 ml/flask.
# (§2) First strand cDNA was synthesized from the RNA using a Superscript Preamplification System from GIBCO/BRL. […] To this was added 10 mM Tris/HCl pH 8.4, 50 mM KCl, 2.5 mM MgCl2, 10 mM DTT, 500 μM each of dGTP, dATP, dCTP and dTTP in a total volume of 20 μl, and the resultant mix was incubated at room temperature for 5 min. Superscript II reverse transcriptase (2 U) was then added and incubation continued at 42° C. for 50 min. at 70° C. for 15 min. RNase H (2 U) was then added and incubation carried out for 20 min. at 37° C. PCR amplification was carried out in a total volume of 50 μl using 2 μl of cDNA, 20 mM Tris/HCl pH 8.4, 50 mM KCl, 1.5 mM MgCl2, 200 μM each of dGTP, dATP, dCTP and dTTP and 0.4 μM of sense and antisense primers specific for different isogenes of human PDE4, human β-actin and human PDE1B1, as described hereinafter. The PCR reaction mixture was incubated at 94° C. for 5 min. followed by the addition of 0.5 μl Taq DNA polymerase (5 U/μl, GIBCO/BRL). PCR amplification was then carried out for 35 cycles at 94° C. for 1 min., 58° C. for 1 min., 72° C. for 1 min., followed by a final extension at 72° C. for 10 min., except where indicated otherwise. A sample of amplified DNA (10 μl) was resolved on a 1.5% agarose gel containing 0.5 μg/ml ethidium bromide and visualized and photographed under UV light. […] PCR amplification with primers specific for human β-actin were run for every cell sample, as positive controls to ensure that the isolated RNA was not degraded, and for normalization to verify that relatively equal amounts of RNA were used for the first strand cDNA synthesis reactions.
# (§3) Primers specific for PDE4A, PDE4B, PDE4C, and PDE4D3 were synthesized. […] M37744; HSPDE4A4B (PDE-46), GenBank no. L20965; HSPDE4A4C (h6.1), GenBank no. U18087. […] U88712 and U88713.
# [2] = test system: PDE4B mRNA in RPMI 8392 cells; experiment: RT-PCR amplification of PDE4 subtype transcripts in RPMI 8392 cells; conditions: agent alone
# [3] = test system: PDE4D3 mRNA in RPMI 8392 cells; experiment: as above; conditions: agent alone
# [4] = test system: RPMI 8392 cells; experiment: Apoptosis by endonuclease-digested DNA (DNA laddering) on agarose gels; conditions: Homo sapiens, read-out: Concentrations at which apoptosis was induced
# Experimental: The preferred method for testing the ability of AS ODN to induce apoptosis as determined by detection of endonuclease digested DNA on agarose gels employs the following sequence:
# (2) Cells are grown to ≈10^6 /ml, collected by centrifugation for 5 min. at 300×g (1000 rpm in an IEC Model K centrifuge), resuspended in growth medium to 10^6 cells/ml, and placed in a 24 well tissue culture plate at 1 ml/well. The cell volumes are kept to a minimum (i.e., -1 ml), in order to reduce the amount of ODN needed. The fetal bovine serum used in the growth medium for this step is heat-inactivated at 65° C. for 1 hr. to minimize serum nuclease activity.
# (4) Cells are then incubated for varying times, usually 1-3 days, following which the DNA is isolated.
# The supernatant is aspirated down to ≈50 μl of volume and the cell pellet is resuspended in this remaining small volume.
# (6) About 400 μl of cold cell lysis buffer (50 mM Tris-HCl, pH 7.5, 10 mM EDTA, 1% Triton X-100) is then added.
# (9) The upper, aqueous phase is transferred to a fresh microfuge tube and 250 μl of phenol and 250 μl of chloroform are added, the mixture gently vortexed for 5 sec., and centrifuged at 16,650×g for 5 min.
# (10) The upper, aqueous phase is again transferred to a fresh microfuge tube and 500 μl of chloroform is added, followed by gentle vortexing and centrifugation at 16,650×g for 3 min.
# (11) The upper, aqueous phase is again transferred to a fresh microfuge tube, 3M sodium acetate (pH 5.2) is added to a final concentration of 0.3M, and 2.5 volumes of ice cold 100% ethanol is added. The solution is left overnight at -20° C. to precipitate the DNA.
# (12) The DNA is collected by centrifugation at 16,650×g for 15 min., the supernatant decanted, and the pellet air dried for ≈30-60 min. at room temperature. The DNA pellet is then dissolved in 50 μl of pH 8.0 TE buffer at room temperature overnight.
# (13) One μl of a 4 mg/ml solution of DNase-free RNase A is then added to the DNA and incubation is carried out at 37° C. for 30 min. This step is necessary to prevent contaminating RNA from obscuring the gel.
# (14) Thirty μl of DNA solution is then mixed with 6 μl of 6× loading buffer and run on a 2% agarose gel, containing 0.5 μg/ml ethidium bromide, in 0.5× TBE buffer (45 mM Tris-borate, 1 mM EDTA, pH 8.0) at ≈50 V for ≈1.5 hr. The 6× loading buffer used is 0.25% xylene cyanol and 30% glycerol. The use of bromophenol blue is omitted for this analysis because it tends to obscure the visualization of the DNA ladder pattern.
# (15) The gel is then visualized and photographed under UV light.
# The effect of pharmacological inhibition of each of these PDE activities on induction of apoptosis in RPMI 8392 cells was tested, using the appearance of oligonucleosome length fragments of endonuclease digested DNA as a measure of apoptosis.
# Markers (lane 1 in both gels) are 1 kb DNA ladder size markers from GIBCO/BRL.
# Cells (10^6) were collected by centrifugation at 670×g for 5 min. The cell pellets were rinsed once with 0.2M dibasic sodium phosphate and lysed in 300 μl of lysis buffer (50 mM Tris/HCl pH 7.5, 10 mM EDTA, 1% V/V Triton X-100) for 20 min on ice. Proteinase K was added to 0.5 mg/ml and DNase-free RNase was added to 50 μg/ml and the extract incubated at 37° C. for 1 hr. DNA was then extracted in phenol/chloroform (1:1) and chloroform (1:1) and precipitated in 2.5 volumes of ethanol. The extracted DNA was electrophoresed on 2% agarose gels, the gels stained with 0.5 μg/ml ethidium bromide and photographed under UV light.
# Experiments were conducted to determine if inhibition of the expression of the gene for PDE1B1 could induce apoptosis.
# [5] = test system: isolated, quiescent HPBL; experiment: TUNEL assay of apoptosis, flow cytometry, quiescent HPBL; conditions: mitogen PHA added to HPBL in culture
# Description: Nevertheless, the effects of AS ODNs on HPBL can still be tested by quantifying and comparing the percentage of cells undergoing apoptosis in the presence and absence of the AS ODN. Apoptosis detected by examining endonuclease-digested DNA, commonly referred to as the DNA laddering technique, has been employed and the results therefrom are set forth in FIG. 5. However, we prefer to use a TUNEL assay, an acronym for terminal deoxynucleotidyl transferase (TdT)-mediated dUTP nick end labeling, which more readily allows quantitation of the percentage of cells undergoing apoptosis. The principle of the TUNEL assay is that endonuclease digestion during apoptosis results in the formation of 3'-OH ends in the digested DNA. The digested DNA in the apoptotic cells can then be labeled with fluorescein by catalytically incorporating fluorescein-12-dUTP at the 3'-OH ends using the TdT enzyme. Fluorescence can then be quantitated by flow cytometry, using a fluorescence activated cell sorter (FACS), which would give a measure of the number of cells undergoing apoptosis. An example of the appearance of a population of fluorescein labeled apoptotic cells, as evidenced by flow cytometry, following TUNEL assay labeling of the cells, is shown in FIGS. 6A-C. Cells were then cultured for 3 days with 10 μg/ml PHA-P (Sigma), in the absence of any ODN (FIG. 6A), in the presence of 30 μM NS ODN (FIG. 6B), or in the presence of 30 μM AS ODN (FIG. 6C). Cells were then collected by centrifugation and fluorescein labeled by the TUNEL assay using the Promega Apoptosis Detection System. Flow cytometry was performed on a Beckton Dickinson FACScan by the FACS facility.
# The procedure for analyzing apoptosis by the TUNEL method uses either an In Situ Cell Death Kit, Fluorescein from Boehringer Mannheim or an Apoptosis Detection System, Fluorescein from Promega and follows the protocols of the manufacturers. The data in FIGS. 6 and 7 was obtained using the manufacturer's protocol for the Apoptosis Detection System, Fluorescein from Promega. […]
# [6] = test system: PDE1B1 mRNA in HPBL; experiment: RT-PCR amplification of transcripts in HPBL
# Experimental: as §1, §2, §3
# [7] = test system: PDE4A mRNA in HPBL; experiment: RT-PCR amplification of transcripts in HPBL; conditions: 10 μg/ml PHA-P, 18 and 48 hr
# Experimental: as §1, §2, §3
# [8] = test system: PDE4D1 and D2 mRNA in HPBL; experiment: RT-PCR amplification of transcripts in HPBL; conditions: 10 μg/ml PHA-P, 18 and 48 hr
# Experimental: as §1, §2, §3
# [9] = test system: PDE4D3 mRNA in HPBL; experiment: RT-PCR amplification of transcripts in HPBL; conditions: 10 μg/ml PHA-P, more prominent at 48 hr than 18 hr
# Experimental: as §1, §2, §3
compound,measurement,setting,value
"CC(C)Cn1c(=O)n(C)c(=O)c2[nH]cnc21 [IBMX, 1-methyl-3-isobutylxanthine]","PDE4 mRNA expression, compared with dbcAMP plus IBMX",[1]; IBMX (0.1 mM) alone,same effects
same,"Expression of PDE4B mRNA, compared with dbcAMP plus IBMX",[2],reproduced
same,"Expression of PDE4D3 mRNA, compared with dbcAMP plus IBMX",[3],reproduced
CCCCOc1cc(CC2CNC(=O)N2)ccc1OC (centres unmarked) [RO 20-1724],minimal effective concentration,[4]; 24 h,≥ 10 µM
"CCCC(=O)Nc1ncnc2c1ncn2[C@@H]1O[C@@H]2COP(=O)(O)O[C@H]2[C@H]1OC(=O)CCC [dbcAMP, dibutyryl cAMP]","PDE4 mRNA expression, compared with dbcAMP plus IBMX",[1]; dbcAMP (1 mM) alone,same effects
same,"Expression of PDE4B mRNA, compared with dbcAMP plus IBMX",[2],reproduced
same,"Expression of PDE4D3 mRNA, compared with dbcAMP plus IBMX",[3],reproduced
COc1ccc(C2CNC(=O)C2)cc1OC1CCCC1 (centres unmarked) [rolipram],minimal effective concentration,"[4]; RPMI 8392 cells, culture for 24 hr",≥ 10 µM
phytohemagglutinin [PHA],Spontaneous apoptosis of HPBL in culture (TUNEL),[5],prevented the HPBL from undergoing spontaneous apoptosis
same,Expression of the mRNA for PDE1B1,"[6]; 10 μg/ml PHA-P, 18 and 48 hr",readily apparent
same,PDE1B1 RT-PCR cDNA fragment (≈333 nt),[6]; PHA for 3 days,show a cDNA fragment of the predicted size
same,Expression of PDE4A mRNA,[7],striking induction
same,Expression of PDE4D1 and D2 mRNA,[8],some increase in the expression
same,Expression of PDE4D3 mRNA,[9],huge induction
